# In patent US20250072423A1, “THIOPHENE ACETIC ACID FOR PLANT GROWTH REGULATION” (priority 2023, published 2025):
# Columns and labels:
# AtIAA5 (AT1G15580) = test: qRT-PCR of early auxin-responsive gene AtIAA5 (Experiment 9); type: in vivo, A. thaliana; conditions: 5 and 10 μM TAA
# Protocol: (§1) To analyze TAA responsive genes in Arabidopsis, WT Arabidopsis seeds were germinated as described and 14-day-old uniform-looking seedlings were initially acclimatized in liquid germination medium for 2 hours before transferring to medium containing different concentrations of TAA (5 and 10 μM). Seedlings in media supplemented with DMSO were used as control. Five random seedlings were selected and considered as one sample and three samples from both control and treatments were flash frozen in liquid nitrogen and total RNA was isolated using a TRIzol reagent (ThermoFisher Scientific, Cat #15596026).
# (§2) Expression levels of seven previously reported early auxin-responsive genes were verified by qRT-PCR (quantitative reverse transcription polymerase chain reaction). RNA reverse transcription was performed using QuantiTect Reverse Transcription Kit (Qiagen). Three biological replicates and three technical replicates were used for all qRT-PCRs. Arabidopsis actin gene (AT3G18780) was used as internal reference.
# tobacco leaf explants = test: Shoot organogenesis from tobacco leaf explants in vitro (Experiment 4); type: cell-based, Nicotiana tabacum L. cv. Petit Havana SRI; conditions: 8 weeks
# WT A. thaliana seedlings = test: Root gravitropism of WT Arabidopsis seedlings (Experiment 8); type: in vivo
# Protocol: Arabidopsis Columbia-0 wild type (WT) was used for assessing the effect of TAA on root growth and its effects on the expression of auxin-responsive genes. Seeds of A. thaliana were surface sterilized by suspending in 70% ethanol for 1 minute, followed by treatment with 10% bleach for 20 minutes. After thorough washing with sterile distilled water, the sterilized seeds were plated onto germination medium (half-strength Murashige and Skoog basal medium with vitamins (1/2 MS) medium supplemented with 1% sucrose and 0.7% plant agar) for germination. Germination was initiated by incubating the seeds in darkness at 5° C. for 2 days, followed by transfer to a light environment at 22° C. with a photoperiod of 16-h light/8-h dark for further growth. Stock solutions of TAA were prepared in DMSO (dimethyl sulfoxide). In control treatments, DMSO was used in equal amounts as present in the greatest concentration of TAA tested.
# To analyze the effect of TAA on gravitropism, WT A. thaliana seeds were cultured on 1/2 MS medium for 8 days. Uniform seedlings were then selected and vertically grown in germination medium supplemented with different concentrations of TAA (1, 2, 5, 10, and 25 μM) for 24 h. Seedlings grown on media supplemented with DMSO were used as control. The plates were then rotated clockwise 90° to make the root parallel to the ground. The seedlings were allowed to grow for 73 h and the plates were photographed at different intervals. Image J software was used to measure the curvature of 16 plants each in the control and treatment groups.
# AtLBD29, AT3G58190 = test: qRT-PCR of early auxin-responsive gene AtLBD29 (Experiment 9); type: in vivo, A. thaliana; conditions: 5 and 10 μM TAA, both time points
# Protocol: as §1, §2
# [1] = system: tomato cotyledon explants; test: Root regeneration from tomato cotyledon explants in vitro (Experiment 2); type: cell-based, tomato cultivar Roma VF; conditions: 0.05 and 0.1 mg/L
# Protocol: Seeds of tomato cultivar Roma VF were sterilized by treating with 75% ethanol for 30 seconds at room temperature and washed with sterile water for five times. The seeds were then treated with 15% sodium hypochlorite for 10 minutes and washed five times in sterile water. The sterilized seeds were germinated on half-strength Murashige and Skoog (MS) medium in vitro. Cotyledons from 10-day old seedlings before first true leaves emerged were used as starting explants in all the experiments. The base and tip of the cotyledons were excised and the explants were transferred with the abaxial surface in contact with the culture medium. The basic culture medium consists of MS medium with vitamins supplemented with 30 g/L sucrose and gelled with 0.8% agar, and the pH of the medium was adjusted to 5.8±0.2. Plates were maintained at a light cycle of 16/8 hours day/night, temperature of 26/24° C. day/night, and relative humidity of 70% and subcultured on the same media after 14 days. Observations were made on 7, 14, 21 and 28 days of growth. All experiments were conducted with at least three replicates of 10 explants each.
# In order to analyze the effect of TAA on root regeneration, the basic media were supplemented with different concentrations of TAA (0.05 and 0.1 mg/L) and further compared with individual effect of widely used auxins (IAA, NAA, IBA, 2,4 D) at similar concentrations.
# [2] = system: tomato cotyledon explants; test: Shoot regeneration from tomato cotyledon explants with 1 mg/L BAP (Experiment 3); type: cell-based, tomato cultivar Roma VF
# Description: The sterilized seeds were germinated on half-strength Murashige and Skoog (MS) medium in vitro. Cotyledons from 10-day old seedlings before first true leaves emerged were used as starting explants in all the experiments. The base and tip of the cotyledons were excised and the explants were transferred with the abaxial surface in contact with the culture medium. The basic culture medium consists of MS medium with vitamins supplemented with 30 g/L sucrose and gelled with 0.8% agar, and the pH of the medium was adjusted to 5.8±0.2. […] All experiments were conducted with at least three replicates of 10 explants each.
# To analyse the effects on shoot regeneration, the basic media was supplemented with 1 mg/L BAP and different concentrations of TAA, IAA, NAA, IBA and 2,4 D (0.05, 0.1, 0.5, 1.0 and 2.0 mg/L) individually. Since there are no previous reports on suitable concentration ranges for TAA in tomato regeneration, concentrations at 50.0, 100.0, 200.0 and 300.0 mg/L were analysed additionally for TAA.
# AtGH3.3 (AT2G23170) = test: qRT-PCR of early auxin-responsive gene AtGH3.3 (Experiment 9); type: in vivo, A. thaliana; conditions: 5 and 10 μM TAA, concentration and time-dependent
# Protocol: as §1, §2
# AtIAA29 (AT4G32280) = test: qRT-PCR of early auxin-responsive gene AtIAA29 (Experiment 9); type: in vivo, A. thaliana; conditions: 5 and 10 μM TAA
# Protocol: as §1, §2
compound,measurement,setting,value
O=C(O)Cc1ccsc1 [TAA],AtIAA5 expression,AtIAA5 (AT1G15580),induction
same,number of shoots regenerated per explant versus basic shoot regeneration media,tobacco leaf explants; 1 mg/L TAA with 2 mg/L kinetin,3 times
same,total number of shoots regenerated versus basic shoot regeneration media,tobacco leaf explants; 1 mg/L TAA with 2 mg/L kinetin,3 times
same,number of shoots regenerated per explant versus basic shoot regeneration media,tobacco leaf explants; 2 mg/L TAA with 2 mg/L kinetin,3 times
same,total number of shoots regenerated versus basic shoot regeneration media,tobacco leaf explants; 2 mg/L TAA with 2 mg/L kinetin,3 times
same,number of regenerated shoots versus basic shoot regeneration media,tobacco leaf explants; 3 mg/L TAA with 2 mg/L kinetin,more than double
same,number of regenerated shoots versus basic shoot regeneration media,tobacco leaf explants; 5 mg/L TAA with 2 mg/L kinetin,more than double
same,effect on shoot regeneration and size of regenerated shoots,tobacco leaf explants; TAA added to 3% MS + 2 mg/L kinetin,positive effect
same,growth angle of primary roots,WT A. thaliana seedlings; 50 h after treatment (FIG. 8b),~90 °
same,growth angle of primary roots,"WT A. thaliana seedlings; higher concentrations (5, 10 and 25 μM)",did not show a marked change in growth angle
same,rate of gravitropic response,"WT A. thaliana seedlings; lower concentrations (1 and 2 μM), plates rotated 90°",enhanced the rate of gravitropic response
same,AtLBD29 expression,"AtLBD29, AT3G58190",upregulation
same,root growth / root regeneration compared with known auxins,[1]; after Day 7 (FIG. 3),performs on par with most known auxins
same,organogenesis from tomato cotyledon explants (root formation),"[1]; no other hormones, within 7 days",rapid root formation
same,time to necrosis of explants,[2]; 300 mg/L with 1 mg/L BAP,≤ 7 days
same,survival of explants,"[2]; 300 mg/L with 1 mg/L BAP, by Day 28",all explants were dead
same,shoot organogenesis,"[2]; 50.0, 100.0 and 200.0 mg/L with 1 mg/L BAP",did not show any shoot or root formation
same,AtGH3.3 upregulation,AtGH3.3 (AT2G23170),over 70 fold
same,AtIAA29 expression,AtIAA29 (AT4G32280),induction
